In US11180462B2, “Microbiocidal oxadiazole derivatives” (SYNGENTA PARTICIPATIONS AG, priority 2015, dated 2021):

How the values were obtained:
[1] = system: Puccinia recondita f. Sp. Tritici; assay: Fungicidal activity against Puccinia recondita f. sp. tritici / wheat / leaf disc preventative (brown rust); assay type: in vivo; conditions: foliar, 200 ppm in the applied formulation, wheat leaf segments, preventative, compared to untreated control leaf disks, read-out: disease control
Method in brief: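 Compound application precedes infection: segments of wheat cv. Kanzler, sprayed at 200 ppm, are inoculated with a spore suspension after 1 day. Incubation is at 19° C. with 75% relative humidity and 12 h light/12 h darkness, and control versus untreated leaves is rated 7 to 9 days post-application.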

[2] = system: Puccinia recondita f. Sp. Tritici; assay: Fungicidal activity against Puccinia recondita f. sp. tritici / wheat / leaf disc curative (brown rust); assay type: in vivo; conditions: foliar, 24 h, 200 ppm in the applied formulation, wheat leaf segments, curative (applied 1 day after inoculation), compared to untreated control leaf disks, read-out: disease control
Method in brief: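 Inoculate cv. Kanzler segments on agar; hold dark, 19° C, 75% RH. Spray diluted formulated compound at day 1. Incubate 12 h light/12 h dark, same temperature and humidity; score % control vs untreated 6–8 days later.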

Phakopsora Pachyrhizi = assay: Fungicidal activity against Phakopsora pachyrhizi / soybean / leaf disc preventative (Asian soybean rust); assay type: in vivo; conditions: foliar, 200 ppm in the applied formulation, soybean leaf disks, compared to untreated control leaf disks, read-out: disease control
Method in brief: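 Preventative soybean leaf-disc test: discs on water agar sprayed with diluted formulated compound, inoculated one day later with spores on the lower surface. Held 24–36 h dark at 20°C, 75% rh, then 12 h light/day; percent disease control versus untreated discs scored 12–14 days after application.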

[3] = system: Glomerella lagenarium (Colletotrichum lagenarium); assay: Fungicidal activity against Glomerella lagenarium (Colletotrichum lagenarium) liquid culture / cucumber / preventative (anthracnose); assay type: cell-based; conditions: Colletotrichum orbiculare; 20 ppm in the applied formulation; liquid culture (PDB), growth inhibition measured photometrically after 3 to 4 days; compared to untreated control; read-out: disease control
Method in brief: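 Photometric read-out of fungal growth after 2–7 days, expressed as percent antifungal activity versus untreated check. Cryo-stored conidia in PDB; compound at 20 ppm; dark, 24 °C, 96% RH.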

CN(Cc1ccc(-c2noc(C(F)(F)F)n2)cc1)C(=O)C(C)(C)O [Compound 1.781, 2-hydroxy-N,2-dimethyl-N-[[4-[5-(trifluoromethyl)-1,2,4-oxadiazol-3-yl]phenyl]methyl]-propanamide]
≥ 80%: pest or weed control at 200 ppm [1] | pest or weed control at 200 ppm [2] | pest or weed control at 200 ppm (Phakopsora Pachyrhizi) | inhibition of growth at 20 ppm [3]

COC(C)(C)C(=O)N(C)Cc1ccc(-c2noc(C(F)(F)F)n2)cc1 [Compound 1.782, 2-methoxy-N,2-dimethyl-N-[[4-[5-(trifluoromethyl)-1,2,4-oxadiazol-3-yl]phenyl]methyl]-propanamide]
≥ 80%: pest or weed control at 200 ppm [1] | pest or weed control at 200 ppm [2] | pest or weed control at 200 ppm (Phakopsora Pachyrhizi) | inhibition of growth at 20 ppm [3]

COC(C)C(=O)N(Cc1ccc(-c2noc(C(F)(F)F)n2)c(F)c1)OC (stereo not drawn) [Compound 1.783, N-[[3-fluoro-4-[5-(trifluoromethyl)-1,2,4-oxadiazol-3-yl]phenyl]methyl]-N,2-dimethoxy-propanamide]
≥ 80%: pest or weed control at 200 ppm [1] | pest or weed control at 200 ppm [2] | pest or weed control at 200 ppm (Phakopsora Pachyrhizi) | inhibition of growth at 20 ppm [3]

CON(Cc1ccc(-c2noc(C(F)(F)F)n2)cc1)C(=O)C(C)(C)O [Compound 1.784, 2-hydroxy-N-methoxy-2-methyl-N-[[4-[5-(trifluoromethyl)-1,2,4-oxadiazol-3-yl]phenyl]methyl]-propanamide]
≥ 80%: pest or weed control at 200 ppm [1] | pest or weed control at 200 ppm [2] | pest or weed control at 200 ppm (Phakopsora Pachyrhizi) | inhibition of growth at 20 ppm [3]

CON(Cc1ccc(-c2noc(C(F)(F)F)n2)cc1)C(=O)C(C)O (stereo not drawn) [Compound 1.786, 2-hydroxy-N-methoxy-N-[[4-[5-(trifluoromethyl)-1,2,4-oxadiazol-3-yl]phenyl]methyl]-propanamide]
≥ 80%: pest or weed control at 200 ppm [1] | pest or weed control at 200 ppm [2] | pest or weed control at 200 ppm (Phakopsora Pachyrhizi) | inhibition of growth at 20 ppm [3]

CCCOC(=O)N(Cc1ccc(-c2noc(C(F)(F)F)n2)cc1)OC [Compound 2.4, propyl N-methoxy-N-[[4-[5-(trifluoromethyl)-1,2,4-oxadiazol-3-yl]phenyl]methyl]-carbamate]
≥ 80%: pest or weed control at 200 ppm [1] | pest or weed control at 200 ppm [2] | pest or weed control at 200 ppm (Phakopsora Pachyrhizi) | inhibition of growth at 20 ppm [3]

COC(=O)ON(Cc1ccc(-c2noc(C(F)(F)F)n2)cc1)C(=O)OC [Compound 2.25, [methoxycarbonyl-[[4-[5-(trifluoromethyl)-1,2,4-oxadiazol-3-yl]phenyl]methyl]-amino]methyl carbonate]
≥ 80%: pest or weed control at 200 ppm [1] | pest or weed control at 200 ppm [2] | pest or weed control at 200 ppm (Phakopsora Pachyrhizi) | inhibition of growth at 20 ppm [3]

COCCNC(=O)N(Cc1ccc(-c2noc(C(F)(F)F)n2)cc1)OC [Compound 3.2, 1-methoxy-3-(2-methoxyethyl)-1-[[4-[5-(trifluoromethyl)-1,2,4-oxadiazol-3-yl]phenyl]methyl]-urea]
≥ 80%: pest or weed control at 200 ppm [1] | pest or weed control at 200 ppm [2] | pest or weed control at 200 ppm (Phakopsora Pachyrhizi) | inhibition of growth at 20 ppm [3]

CNC(=O)N(Cc1ccc(-c2noc(C(F)(F)F)n2)cc1)OC [Compound 3.4, 1-methoxy-3-methyl-1-[[4-[5-(trifluoromethyl)-1,2,4-oxadiazol-3-yl]phenyl]methyl]urea]
≥ 80%: pest or weed control at 200 ppm [1] | pest or weed control at 200 ppm [2] | pest or weed control at 200 ppm (Phakopsora Pachyrhizi) | inhibition of growth at 20 ppm [3]

CON(Cc1ccc(-c2noc(C(F)(F)F)n2)cc1)C(=O)N(C)C [Compound 3.5, 1-methoxy-3,3-dimethyl-1-[[4-[5-(trifluoromethyl)-1,2,4-oxadiazol-3-yl]phenyl]methyl]urea]
≥ 80%: pest or weed control at 200 ppm [1] | pest or weed control at 200 ppm [2] | pest or weed control at 200 ppm (Phakopsora Pachyrhizi) | inhibition of growth at 20 ppm [3]

CCON(Cc1ccc(-c2noc(C(F)(F)F)n2)cc1)C(=O)N(C)OC [Compound 3.7, 1-ethoxy-3-methoxy-3-methyl-1-[[4-[5-(trifluoromethyl)-1,2,4-oxadiazol-3-yl]phenyl]methyl]urea]
≥ 80%: pest or weed control at 200 ppm [1] | pest or weed control at 200 ppm [2] | pest or weed control at 200 ppm (Phakopsora Pachyrhizi) | inhibition of growth at 20 ppm [3]

CON(Cc1ccc(-c2noc(C(F)(F)F)n2)cc1)C(=O)Nc1ccccc1 [Compound 3.8, 1-methoxy-3-phenyl-1-[[4-[5-(trifluoromethyl)-1,2,4-oxadiazol-3-yl]phenyl]methyl]urea]
≥ 80%: pest or weed control at 200 ppm [1] | pest or weed control at 200 ppm [2] | pest or weed control at 200 ppm (Phakopsora Pachyrhizi) | inhibition of growth at 20 ppm [3]

CCC(C)NC(=O)N(Cc1ccc(-c2noc(C(F)(F)F)n2)cc1)OC (stereo not drawn) [Compound 3.9, 1-methoxy-3-sec-butyl-1-[[4-[5-(trifluoromethyl)-1,2,4-oxadiazol-3-yl]phenyl]methyl]urea]
≥ 80%: pest or weed control at 200 ppm [1] | pest or weed control at 200 ppm [2] | pest or weed control at 200 ppm (Phakopsora Pachyrhizi) | inhibition of growth at 20 ppm [3]

CCNC(=O)N(Cc1ccc(-c2noc(C(F)(F)F)n2)cc1)OC [Compound 3.12, 3-ethyl-1-methoxy-1-[[4-[5-(trifluoromethyl)-1,2,4-oxadiazol-3-yl]phenyl]methyl]urea]
≥ 80%: pest or weed control at 200 ppm [1] | pest or weed control at 200 ppm [2] | pest or weed control at 200 ppm (Phakopsora Pachyrhizi) | inhibition of growth at 20 ppm [3]

CON(Cc1ccc(-c2noc(C(F)(F)F)n2)cc1)C(=O)NCC(C)C [Compound 3.13, 3-isobutyl-1-methoxy-1-[[4-[5-(trifluoromethyl)-1,2,4-oxadiazol-3-yl]phenyl]methyl]urea]
≥ 80%: pest or weed control at 200 ppm [1] | pest or weed control at 200 ppm [2] | pest or weed control at 200 ppm (Phakopsora Pachyrhizi) | inhibition of growth at 20 ppm [3]

CON(Cc1ccc(-c2noc(C(F)(F)F)n2)cc1)C(=O)NCc1ccccc1 [Compound 3.15, 3-benzyl-1-methoxy-1-[[4-[5-(trifluoromethyl)-1,2,4-oxadiazol-3-yl]phenyl]methyl]urea]
≥ 80%: pest or weed control at 200 ppm [1] | pest or weed control at 200 ppm [2] | pest or weed control at 200 ppm (Phakopsora Pachyrhizi) | inhibition of growth at 20 ppm [3]

CON(Cc1ccc(-c2noc(C(F)(F)F)n2)cc1)C(=O)NC1CCC1 [Compound 3.16, 3-cyclobutyl-1-methoxy-1-[[4-[5-(trifluoromethyl)-1,2,4-oxadiazol-3-yl]phenyl]methyl]urea]
≥ 80%: pest or weed control at 200 ppm [1] | pest or weed control at 200 ppm [2] | pest or weed control at 200 ppm (Phakopsora Pachyrhizi) | inhibition of growth at 20 ppm [3]

CCN(C)C(=O)N(Cc1ccc(-c2noc(C(F)(F)F)n2)cc1)OC [Compound 3.17, 1-ethyl-3-methoxy-1-methyl-3-[[4-[5-(trifluoromethyl)-1,2,4-oxadiazol-3-yl]phenyl]methyl]urea]
≥ 80%: pest or weed control at 200 ppm [1] | pest or weed control at 200 ppm [2] | pest or weed control at 200 ppm (Phakopsora Pachyrhizi) | inhibition of growth at 20 ppm [3]

CON(Cc1ccc(-c2noc(C(F)(F)F)n2)cc1)C(=O)NC(C)(C)C [Compound 3.19, 3-tert-butyl-1-methoxy-1-[[4-[5-(trifluoromethyl)-1,2,4-oxadiazol-3-yl]phenyl]methyl]urea]
≥ 80%: pest or weed control at 200 ppm [1] | pest or weed control at 200 ppm [2] | pest or weed control at 200 ppm (Phakopsora Pachyrhizi) | inhibition of growth at 20 ppm [3]

C=CCNC(=O)N(Cc1ccc(-c2noc(C(F)(F)F)n2)cc1)OC [Compound 3.20, 3-allyl-1-methoxy-1-[[4-[5-(trifluoromethyl)-1,2,4-oxadiazol-3-yl]phenyl]methyl]urea]
≥ 80%: pest or weed control at 200 ppm [1] | pest or weed control at 200 ppm [2] | pest or weed control at 200 ppm (Phakopsora Pachyrhizi) | inhibition of growth at 20 ppm [3]

CCCNC(=O)N(Cc1ccc(-c2noc(C(F)(F)F)n2)cc1)OC [Compound 3.21, 1-methoxy-3-propyl-1-[[4-[5 - (trifluoromethyl)-1,2,4-oxadiazol-3-yl]phenyl]methyl]urea]
≥ 80%: pest or weed control at 200 ppm [1] | pest or weed control at 200 ppm [2] | pest or weed control at 200 ppm (Phakopsora Pachyrhizi) | inhibition of growth at 20 ppm [3]

CONC(=O)N(Cc1ccc(-c2noc(C(F)(F)F)n2)cc1)OC [Compound 3.22, 1,3-dimethoxy-1-[[4-[5-(trifluoromethyl)-1,2,4-oxadiazol-3-yl]phenyl]methyl]urea]
≥ 80%: pest or weed control at 200 ppm [1] | pest or weed control at 200 ppm [2] | pest or weed control at 200 ppm (Phakopsora Pachyrhizi) | inhibition of growth at 20 ppm [3]

CON(Cc1ccc(-c2noc(C(F)(F)F)n2)cc1)C(=O)NC1CCCC1 [Compound 3.23, 3-cyclopentyl-1-methoxy-1-[[4-[5-(trifluoromethyl)-1,2,4-oxadiazol-3-yl]phenyl]methyl]urea]
≥ 80%: pest or weed control at 200 ppm [1] | pest or weed control at 200 ppm [2] | pest or weed control at 200 ppm (Phakopsora Pachyrhizi) | inhibition of growth at 20 ppm [3]

CON(Cc1ccc(-c2noc(C(F)(F)F)n2)cc1)C(=O)NCc1ccco1 [Compound 3.24, 3-(2-furylmethyl)-1-methoxy-1-[[4-[5-(trifluoromethyl)-1,2,4-oxadiazol-3-yl]phenyl]methyl]urea]
≥ 80%: pest or weed control at 200 ppm [1] | pest or weed control at 200 ppm [2] | pest or weed control at 200 ppm (Phakopsora Pachyrhizi) | inhibition of growth at 20 ppm [3]
